Biological target: TYK2 (Homo sapiens, UniProt P29597)
Test: TYK2 protein degradation in MOLT-4 cells by immunoblotting
Format: cell-based
Parameters: endogenous in cells; host or cells: MOLT-4
Conditions: MOLT-4 cells, 24 hours
Description: MOLT-4 cells were treated with compounds at 0.5 and 5 μM concentrations for 24 hours.
MOLT-4 cells were treated with CPD-038, CPD-039, and CPD-040 at 0.04, 0.2, 1, and 5 μM concentrations for 24 hours.
MOLT-4 or NOMO-1 cells were cultured at 37° C. with 5% CO2 in RPMI 1640 Medium supplemented with 10% fetal bovine serum. Cells were authenticated using the short tandem repeat (STR) assays. Mycoplasma test results were negative.
Cultured cells were washed with cold PBS once and lysed in cold RIPA buffer supplemented with protease inhibitors and phosphatase inhibitors (Beyotime Biotechnology). The solutions were then incubated at 4° C. for 30 minutes with gentle agitation to fully lyse cells. Cell lysates were centrifuged at 13,000 rpm for 10 minutes at 4° C. and pellets were discarded. Total protein concentrations in the lysates were determined by BCA assays (Beyotime Biotechnology). Cell lysates were mixed with Laemmli loading buffer to 1× and heated at 99° C. for 5 min. Proteins were resolved on SDS-PAGE and visualized by chemiluminescence. Images were taken by a ChemiDoc MP Imaging system (Bio-Rad). Protein bands were quantitated using the accompanied software provided by Bio-Rad.
The percentage of TYK2 protein degradation of each compound at 0.5 and 5 μM determined in MOLT-4 cells as described in Methods.

Sequence of TYK2 (P29597 whole entry): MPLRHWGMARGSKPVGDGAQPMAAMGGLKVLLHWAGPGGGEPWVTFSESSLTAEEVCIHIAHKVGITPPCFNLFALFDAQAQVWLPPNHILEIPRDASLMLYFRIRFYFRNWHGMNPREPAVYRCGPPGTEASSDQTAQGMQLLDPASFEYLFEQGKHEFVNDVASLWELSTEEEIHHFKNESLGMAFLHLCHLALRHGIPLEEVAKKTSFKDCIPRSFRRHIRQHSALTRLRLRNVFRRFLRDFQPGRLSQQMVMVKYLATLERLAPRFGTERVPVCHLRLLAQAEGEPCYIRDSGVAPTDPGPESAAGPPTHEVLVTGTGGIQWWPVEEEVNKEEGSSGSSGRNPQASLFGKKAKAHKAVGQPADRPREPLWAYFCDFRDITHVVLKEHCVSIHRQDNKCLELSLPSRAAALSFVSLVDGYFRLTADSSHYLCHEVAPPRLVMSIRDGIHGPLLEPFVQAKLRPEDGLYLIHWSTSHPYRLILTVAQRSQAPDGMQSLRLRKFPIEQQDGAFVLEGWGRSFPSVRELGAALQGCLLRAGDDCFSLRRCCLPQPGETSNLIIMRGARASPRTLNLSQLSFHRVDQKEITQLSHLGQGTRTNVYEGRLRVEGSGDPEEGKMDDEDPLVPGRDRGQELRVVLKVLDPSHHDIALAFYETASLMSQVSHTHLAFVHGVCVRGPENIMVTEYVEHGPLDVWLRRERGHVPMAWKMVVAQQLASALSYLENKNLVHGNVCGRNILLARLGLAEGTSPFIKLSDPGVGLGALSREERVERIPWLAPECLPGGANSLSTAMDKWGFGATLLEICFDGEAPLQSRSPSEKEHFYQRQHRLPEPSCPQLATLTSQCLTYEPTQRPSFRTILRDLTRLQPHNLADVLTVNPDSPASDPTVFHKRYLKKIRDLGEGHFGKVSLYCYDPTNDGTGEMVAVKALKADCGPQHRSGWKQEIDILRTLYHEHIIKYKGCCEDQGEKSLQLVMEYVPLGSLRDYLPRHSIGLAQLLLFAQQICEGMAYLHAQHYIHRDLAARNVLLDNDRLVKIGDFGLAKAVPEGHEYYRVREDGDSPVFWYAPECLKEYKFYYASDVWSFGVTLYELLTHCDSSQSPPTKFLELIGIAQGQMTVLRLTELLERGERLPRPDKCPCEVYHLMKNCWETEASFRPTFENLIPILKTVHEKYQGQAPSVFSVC

| SMILES | TYK2 Degradation (0.5 μM) | TYK2 Degradation (5 μM) | TYK2 Degradation (MOLT-4, 0.5 μM) | TYK2 Degradation (MOLT-4, 5 μM) |
| --- | --- | --- | --- | --- |
| CNC(=O)c1nnc(NC(=O)CNC(=O)CCCCC(=O)N[C@H](C(=O)N2C[C@H](O)C[C@H]2C(=O)NCc2ccc(-c3scnc3C)cc2)C(C)(C)C)cc1Nc1cccc(-c2ncn(C)n2)c1OC [CPD-036, N^1-((S)-1-((2S,4R)-4-Hydroxy-2-((4-(4-methylthiazol-5-yl)benzyl)carbamoyl)pyrrolidin-1-yl)-3,3-dimethyl-1-oxobutan-2-yl)-N^6-(2-((5-((2-methoxy-3-(1-methyl-1H-1,2,4-triazol-3-yl)phenyl)amino)-6-(methylcarbamoyl)pyridazin-3-yl)amino)-2-oxoethyl)adipamide] | ≤20% | 40% |  |  |
| CNC(=O)c1nnc(NC(=O)CNC(=O)CCNc2ccc3c(c2)C(=O)N(C2CCC(=O)NC2=O)C3=O)cc1Nc1cccc(-c2ncn(C)n2)c1OC (centres unmarked) [CPD-055, 6-(2-(3-((2-(2,6-Dioxopiperidin-3-yl)-1,3-dioxoisoindolin-5-yl)amino)propanamido)acetamido)-4-((2-methoxy-3-(1-methyl-1H-1,2,4-triazol-3-yl)phenyl)amino)-N-methylpyridazine-3-carboxamide] | ≤20% | ≤20% |  |  |
| CNC(=O)c1nnc(NC(=O)C2CC2)cc1Nc1cccc(-c2ncn(CCNC(=O)CCCNc3cccc4c3C(=O)N(C3CCC(=O)NC3=O)C4=O)n2)c1OC (centres unmarked) [CPD-003, 6-(Cyclopropanecarboxamido)-4-((3-(1-(2-(4-((2-(2,6-dioxopiperidin-3-yl)-1,3-dioxoisoindolin-4-yl)amino)butanamido)ethyl)-1H-1,2,4-triazol-3-yl)-2-methoxyphenyl)amino)-N-methylpyridazine-3-carboxamide] | ≤20% |  |  |  |
| CNC(=O)c1nnc(NC(=O)CNC(=O)CCCNC(=O)C[C@H](NC(=O)[C@@H]2C[C@@H](O)CN2C(=O)[C@@H](NC(=O)C2(F)CC2)C(C)(C)C)c2ccc(-c3scnc3C)cc2)cc1Nc1cccc(-c2ncn(C)n2)c1OC [CPD-088, 6-(2-(4-((S)-3-((2S,4R)-1-((S)-2-(1-Fluorocyclopropane-1-carboxamido)-3,3-dimethylbutanoyl)-4-hydroxypyrrolidine-2-carboxamido)-3-(4-(4-methylthiazol-5-yl)phenyl)propanamido)butanamido)acetamido)-4-((2-methoxy-3-(1-methyl-1H-1,2,4-triazol-3-yl)phenyl)amino)-N-methylpyridazine-3-carboxamide] |  |  | C (C: ≤20% TYK2 degradation) |  |
| CNC(=O)c1nnc(NC(=O)CNC(=O)CCCC(=O)N[C@H](C(=O)N2C[C@H](O)C[C@H]2C(=O)NCc2ccc(-c3scnc3C)cc2)C(C)(C)C)cc1Nc1cccc(-c2ncn(C)n2)c1OC [CPD-035, N^1—((S)-1-((2S,4R)-4-Hydroxy-2-((4-(4-methylthiazol-5-yl)benzyl)carbamoyl)pyrrolidin-1-yl)-3,3-dimethyl-1-oxobutan-2-yl)-N^5-(2-((5-((2-methoxy-3-(1-methyl-1H-1,2,4-triazol-3-yl)phenyl)amino)-6-(methylcarbamoyl)pyridazin-3-yl)amino)-2-oxoethyl)glutaramide] | ≤20% | ≤20% |  |  |
| CNC(=O)c1nnc(NC(=O)CNC(=O)CCCCCCCCCCOc2cc(-c3scnc3C)ccc2CNC(=O)[C@@H]2C[C@@H](O)CN2C(=O)[C@@H](NC(=O)C2(F)CC2)C(C)(C)C)cc1Nc1cccc(-c2ncn(C)n2)c1OC [CPD-110, 6-(2-(11-(2-(((2S,4R)-1-((S)-2-(1-fluorocyclopropane-1-carboxamido)-3,3-dimethylbutanoyl)-4-hydroxypyrrolidine-2-carboxamido)methyl)-5-(4-methylthiazol-5-yl)phenoxy)undecanamido)acetamido)-4-((2-methoxy-3-(1-methyl-1H-1,2,4-triazol-3-yl)phenyl)amino)-N-methylpyridazine-3-carboxamide] |  |  | A (A: ≥60% TYK2 degradation) | A (A: ≥60% TYK2 degradation) |
| CNC(=O)c1nnc(NC(=O)C2CC2)cc1Nc1cccc(-c2ncn(CCNC(=O)CCNc3cccc4c3C(=O)N(C3CCC(=O)NC3=O)C4=O)n2)c1OC (centres unmarked) [CPD-002, 6-(Cyclopropanecarboxamido)-4-((3-(1-(2-(3-((2-(2,6-dioxopiperidin-3-yl)-1,3-dioxoisoindolin-4-yl)amino)propanamido)ethyl)-1H-1,2,4-triazol-3-yl)-2-methoxyphenyl)amino)-N-methylpyridazine-3-carboxamide] | ≤20% |  |  |  |
| CNC(=O)c1nnc(Nc2ccc(N3CCN(C(=O)CCC(=O)N[C@H](C(=O)N4C[C@H](O)C[C@H]4C(=O)NCc4ccc(-c5scnc5C)cc4)C(C)(C)C)CC3)cn2)cc1Nc1cccc(-c2ncn(C)n2)c1OC [CPD-096, 6-((5-(4-(4-(((S)-1-((2S,4R)-4-Hydroxy-2-((4-(4-methylthiazol-5-yl)benzyl)carbamoyl)pyrrolidin-1-yl)-3,3-dimethyl-1-oxobutan-2-yl)amino)-4-oxobutanoyl)piperazin-1-yl)pyridin-2-yl)amino)-4-((2-methoxy-3-(1-methyl-1H-1,2,4-triazol-3-yl)phenyl)amino)-N-methylpyridazine-3-carboxamide] |  |  | B (B: <60% TYK2 degradation, and >20% TYK2 degradation) | C (C: ≤20% TYK2 degradation) |
| CNC(=O)c1nnc(NC(=O)CNC(=O)CCOCCC(=O)N[C@H](C(=O)N2C[C@H](O)C[C@H]2C(=O)NCc2ccc(-c3scnc3C)cc2)C(C)(C)C)cc1Nc1cccc(-c2ncn(C)n2)c1OC [CPD-026, 6-(2-(3-(3-(((S)-1-((2S,4R)-4-Hydroxy-2-((4-(4-methylthiazol-5-yl)benzyl)carbamoyl)pyrrolidin-1-yl)-3,3-dimethyl-1-oxobutan-2-yl)amino)-3-oxopropoxy)propanamido)acetamido)-4-((2-methoxy-3-(1-methyl-1H-1,2,4-triazol-3-yl)phenyl)amino)-N-methylpyridazine-3-carboxamide] | ≤20% | ≤20% |  |  |
| CNC(=O)c1nnc(NC(=O)CNC(=O)CCCNc2ccc3c(c2)C(=O)N(C2CCC(=O)NC2=O)C3=O)cc1Nc1cccc(-c2ncn(C)n2)c1OC (centres unmarked) [CPD-056, 6-(2-(4-((2-(2,6-Dioxopiperidin-3-yl)-1,3-dioxoisoindolin-5-yl)amino)butanamido)acetamido)-4-((2-methoxy-3-(1-methyl-1H-1,2,4-triazol-3-yl)phenyl)amino)-N-methylpyridazine-3-carboxamide] | ≤20% | ≤20% |  |  |
| CNC(=O)c1nnc(NC(=O)C2CC2)cc1Nc1cccc(-c2ncn(CCNC(=O)CCCCC(=O)N[C@H](C(=O)N3C[C@H](O)C[C@H]3C(=O)NCc3ccc(-c4scnc4C)cc3)C(C)(C)C)n2)c1OC [CPD-077, N^1-(2-(3-(3-((6-(Cyclopropanecarboxamido)-3-(methylcarbamoyl)pyridazin-4-yl)amino)-2-methoxyphenyl)-1H-1,2,4-triazol-1-yl)ethyl)-N^6-((S)-1-((2S,4R)-4-hydroxy-2-((4-(4-methylthiazol-5-yl)benzyl)carbamoyl)pyrrolidin-1-yl)-3,3-dimethyl-1-oxobutan-2-yl)adipamide] | ≤20% | ≤20% |  |  |
| CNC(=O)c1nnc(NC(=O)C2CC2)cc1Nc1cccc(-c2ncn(CCNC(=O)CCOCCOCCOCCC(=O)N[C@H](C(=O)N3C[C@H](O)C[C@H]3C(=O)NCc3ccc(-c4scnc4C)cc3)C(C)(C)C)n2)c1OC [CPD-071, 6-(Cyclopropanecarboxamido)-4-((3-(1-((5)-18-((2S,4R)-4-hydroxy-2-((4-(4-methylthiazol-5-yl)benzyl)carbamoyl)pyrrolidine-1-carbonyl)-19,19-dimethyl-4,16-dioxo-7,10,13-trioxa-3,17-diazaicosyl)-1H-1,2,4-triazol-3-yl)-2-methoxyphenyl)amino)-N-methylpyridazine-3-carboxamide] | ≤20% | ≤20% |  |  |
| CNC(=O)c1nnc(NC(=O)CNC(=O)CCCCCCNC(=O)C[C@H](NC(=O)[C@@H]2C[C@@H](O)CN2C(=O)[C@@H](NC(=O)C2(F)CC2)C(C)(C)C)c2ccc(-c3scnc3C)cc2)cc1Nc1cccc(-c2ncn(C)n2)c1OC [CPD-091, 6-(2-(7-((S)-3-((2S,4R)-1-((S)-2-(1-Fluorocyclopropane-1-carboxamido)-3,3-dimethylbutanoyl)-4-hydroxypyrrolidine-2-carboxamido)-3-(4-(4-methylthiazol-5-yl)phenyl)propanamido)heptanamido)acetamido)-4-((2-methoxy-3-(1-methyl-1H-1,2,4-triazol-3-yl)phenyl)amino)-N-methylpyridazine-3-carboxamide] |  |  | C (C: ≤20% TYK2 degradation) | C (C: ≤20% TYK2 degradation) |

Source: US20240059671A1, “TYROSINE KINASE 2 (TYK2) DEGRADATION COMPOUNDS AND METHODS OF USE” (CULLGEN (SHANGHAI), INC., priority 2020, published 2024)
